Assay results from patent US20240277899A1, “PRODUCTION METHOD OF MYOCARDIAL CELL LAYER, MYOCARDIAL CELL LAYER, AND USE THEREOF” (FUJIFILM Corporation, priority 2021, published 2024).
Like-named read-outs stand apart in the source and are kept apart here.

System: myocardial cell layer of myocardial cell C (iCell Cardiomyocytes^2, purity 80%)
Test: Drug screening: electrical signal of spontaneous beating of the myocardial cell layer measured by MEA (QT interval, beat rate, cardiotoxicity)
Conditions: for myocardial beat rate on addition of the drug: MEA 5 minutes after adding drug, Day 17; for myocardial beat rate reaction, TW compared with Control: TW layer versus Control layer
Method: iCell (registered trademark) Cardiomyocytes^2 was thawed according to “iCell Cardiomyocytes^2 User's Guide” to prepare myocardial cells C (purity of the myocardial cells 100%). In addition, myocardium-derived fibroblasts (NHCF-V human cardiac fibroblasts, Lonza, CC-2904) were added to the myocardial cells C to prepare myocardial cells with a purity of 25%, 50%, and 75%, respectively. Each of the prepared myocardial cells was dispersed at 1×10^6 cells/cm^2 and scattered on the seeding surface of the cells of the culture container 3 prepared in Example 1 to form a myocardial cell layer. The cells were cultured in the same manner as in Example 2, a beating frequency was measured, and stability of the TW was evaluated.
Using the myocardial cell C (the myocardial cell with a purity of 80%, which was obtained in the same manner as in Example 4) and the above-described culture container 3 (biodegradable fiber material), a myocardial cell layer was formed in the same manner as in Example 4. […] In addition, the beating frequency was measured up to Day 14 (TW). As a control, the beating frequency was measured in the same manner for those (Control) in which the TW was stopped by exchanging the culture medium with a culture medium at 4° C. on Day 2.
A culture container 3 (biodegradable fiber material) was created in the same manner as in Example 10. In addition, a culture container 3 (PC) was created in the same manner as for the culture container 3 (biodegradable fiber material), using polycarbonate (PC) porous membrane (Thermo Fisher Scientific, Inc., Nunc™ Polycarbonate Cell Culture Cell Inserts in Multi-Well Plates 140644) as a scaffold material. A myocardial cell layer was formed in the same manner as in Example 2, using the myocardial cells B, the culture container 3 (biodegradable fiber material), and the culture container 3 (PC). […] After Day 14, the electrical signal of myocardial spontaneous beating was measured by MEA by stopping the TW by exchanging the culture medium with a culture medium at 4° C. Specifically, data of extracellular Field Potentials (FPs) was recorded on a multielectrode array (MEA) system (USB-ME64-System, Multi Channel Systems, Germany).
A culture container 3 (biodegradable fiber material) was created in the same manner as in Example 10. Using the myocardial cell C (the myocardial cell with a purity of 80%, which was obtained in the same manner as in Example 4) and the above-described culture container 3 (biodegradable fiber material), a myocardial cell layer was formed in the same manner as in Example 4. Those in which the generated TW was stably maintained up to Day 14 (TW), and those in which TW was stopped by exchanging the culture medium with a culture medium at 4° C. on Day 2 (Control), that is, a total of two kinds were produced.

Row | SMILES | QT interval extension, TW compared with Control (TW layer (TW maintained up to Day 14) versus Control layer (TW stopped on Day 2), MEA 5 minutes after drug) | myocardial beat rate on addition of the drug | myocardial beat rate reaction, TW compared with Control (MEA 5 minutes after drug) | QT interval as the concentration increased | QT interval extension, TW compared with Control
1 | Cc1cccc(C)c1OCC(C)N (centres unmarked) [mexiletine] | smaller than Control | – | – | – | –
2 | CC(C)NCC(O)c1ccc(O)c(O)c1 (centres unmarked) [isoproterenol] | – | increased | more sensitive in reaction to isoproterenol as compared with Control | – | –
3 | CC(=O)Oc1ccccc1C(=O)O [aspirin] | – | – | almost the same | decreased | almost the same
4 | COc1ccc(CCN(C)CCCC(C#N)(c2ccc(OC)c(OC)c2)C(C)C)cc1OC (centres unmarked) [verapamil] | – | increased | more sensitive in reaction to verapamil as compared with Control | – | –
